Results on three molecules are retold here after BindingDB's records for doi:10.1016/s0960-894x(98)00116-4 (University of Waterloo, 1999).

*1 amine or outer side, *2 acyl side, *3 side chain or, on linkers, in order; H or OH if unused. Where a SMILES comes first, the peptide text is derived from it. The star is where a group is joined. γGlu = O=C(O)[CH](CCC(=O)[*:2])N[*:1]; NHOH = ON*

Assay [1] deals with Lactoylglutathione lyase (Saccharomyces cerevisiae). The assay is described as follows: Compound was evaluated for inhibition of Saccharomyces cerevisiae glyoxalase-I by using enzymatic assay at each of 6 substrate concentrations between 0.1 mM and 2.0 mM.
Assay [2] has the same target. Put plainly: Compound was evaluated for inhibition of Saccharomyces cerevisiae glyoxalase-I, activity is determined with 0.5 mM substrate.

For orientation: Ki means the dissociation constant of the complex between target and ligand, obtained from inhibition or displacement. The molecule `CN(O)C(=O)CCC(NC(=O)CCC(N)C(=O)O)C(=O)NCC(=O)O` (stereo not drawn) [2-Amino-4-[1-(carboxymethyl-carbamoyl)-3-(hydroxy-methyl-carbamoyl)-propylcarbamoyl]-butyric acid anion] gave a Ki in assay [1] of 1.9 µM.

Molecule `NC(CCC(=O)NC(CCC(=O)NO)C(=O)NCC(=O)O)C(=O)O` (stereo not drawn) [2-Amino-4-[1-(carboxymethyl-carbamoyl)-3-hydroxycarbamoyl-propylcarbamoyl]-butyric acid anion] (γGlu-Glu(NHOH)-Gly-OH; configuration not given here) yielded a Ki in assay [1] of 92.9 µM.

As a reminder, the IC50 is the concentration at which inhibition is half-maximal. With `CCOC(=O)CNC(=O)C(CCC(=O)NO)NC(=O)CCC(N)C(=O)O` (stereo not drawn) [2-Amino-4-[1-(ethoxycarbonylmethyl-carbamoyl)-3-hydroxycarbamoyl-propylcarbamoyl]-butyric acid anion] (γGlu-Glu(NHOH)-Gly-OEt; configuration not given here), in assay [2], inhibition was half-maximal at 1620 µM (IC50).
